{"source": "patent US20040162221A1", "about": "“Pyrazole derivatives and herbicides containing the same” (IDEMITSU KOSAN CO., LTD., priority 1998, published 2004); further: ranges in brackets are in %", "key": {"velvetleaf [1]": {"test_system": "velvetleaf", "assay": "Upland pre-emergence treatment test, velvetleaf", "type": "in vivo, velvetleaf (Abutilon theophrasti)", "details": "pre-emergence soil surface spray, 80 g/ha, 20th day after treatment, greenhouse", "text": "(§1) 97 Parts by weight of talc (trade name: Zeaklite, supplied by Zeaklite Industry) as a carrier, 1.5 parts by weight of alkylarylsulfonic acid salt (trade name: Neoplex, supplied by Kao-Atlas K.K.) as a surfactant and 1.5 parts by weight of a nonionic and anionic surfactant (trade names Sorpol 800A, supplied by Toho Chemical Co., Ltd.) were uniformly pulverized and mixed to prepare a carrier for a wettable powder.\n(§2) 90 Parts by weight of the above carrier for a wettable powder and 10 parts by weight of one of the compounds of the present invention were uniformly pulverized and mixed to obtain herbicides. Further, in Comparative Herbicide Examples, comparative herbicides were also prepared from the following compounds (A) and (B) in the same manner.\n(§3) Herbicidal efficacy and phytotoxicity to crops were determined on the basis of the ratio of remaining plant weight to plant weight in non-treated plot=(remaining plant weight in treated plot/plant weight in non-treated-plot)×100. The ratings were applied to the following biological tests.\n(§4) Seeds of weeds such as velvetleaf, common lambsquaters, redroot pigweed, common ragweed, green foxtail and large crabgrass and seeds of corn were sown in 1/5,000-are Wagner pots filled with upland soil, and covered with upland soil. Then, a predetermined amount of the herbicide prepared in the above (1) was suspended in water, and the suspension was uniformly sprayed onto the soil surface at a rate of 2,000 liters/hectare. Then, the seeds were grown in a greenhouse, and on the 20th day after the treatment, the herbicide was evaluated for herbicidal efficacy and phytotoxicity to corn on the basis of the ratings shown in (2)."}, "common lambsquaters": {"test_system": "common lambsquaters", "assay": "Upland pre-emergence treatment test, common lambsquaters", "type": "in vivo, common lambsquaters (Chenopodium album)", "details": "pre-emergence soil surface spray, 80 g/ha, 20th day after treatment, greenhouse", "text": "as §1, §2, §3, §4"}, "redroot pigweed [2]": {"test_system": "redroot pigweed", "assay": "Upland pre-emergence treatment test, redroot pigweed", "type": "in vivo, redroot pigweed (Amaranthus retroflexus)", "details": "pre-emergence soil surface spray, 80 g/ha, 20th day after treatment, greenhouse", "text": "as §1, §2, §3, §4"}, "common ragweed [3]": {"test_system": "common ragweed", "assay": "Upland pre-emergence treatment test, common ragweed", "type": "in vivo, common ragweed (Ambrosia artemisilfolia)", "details": "pre-emergence soil surface spray, 80 g/ha, 20th day after treatment, greenhouse", "text": "as §1, §2, §3, §4"}, "green foxtail [4]": {"test_system": "green foxtail", "assay": "Upland pre-emergence treatment test, green foxtail", "type": "in vivo, green foxtail (Setaria viridis)", "details": "pre-emergence soil surface spray, 80 g/ha, 20th day after treatment, greenhouse", "text": "as §1, §2, §3, §4"}, "large crabgrass [5]": {"test_system": "large crabgrass", "assay": "Upland pre-emergence treatment test, large crabgrass", "type": "in vivo", "details": "pre-emergence soil surface spray, 80 g/ha, 20th day after treatment, greenhouse", "text": "as §1, §2, §3, §4"}, "corn [6]": {"test_system": "corn", "assay": "Upland pre-emergence treatment test, phytotoxicity to corn", "type": "in vivo", "details": "pre-emergence soil surface spray, 80 g/ha, 20th day after treatment, greenhouse", "text": "as §1, §2, §3, §4"}, "velvetleaf [7]": {"test_system": "velvetleaf", "assay": "Upland post-emergence treatment test, velvetleaf", "type": "in vivo, velvetleaf (Abutilon theophrasti)", "details": "post-emergence spray at 3-4 leaf stage, 80 g/ha, 30th day after treatment, greenhouse", "text": "as §1, §2, §3\n(§5) Seeds of weeds velvetleaf, redroot pigweed, common ragweed, green foxtail and large crabgrass and seeds of corn were sown in 1/5,000-are Wagner pots filled with upland soil, and covered with upland soil. The seeds were grown in a greenhouse, and at the stage of 3˜4 leaves of these plants, a predetermined amount of the herbicide prepared in the above (1) was suspended in water, and the suspension was uniformly sprayed onto leaf and stalk portions at a rate of 2,000 liters/hectare. Then, the plants were grown in the greenhouse, and on the 30th day after the treatment, the herbicide was evaluated for herbicidal efficacy and phytotoxicity to the corn on the basis of the ratings shown in (2)."}, "redroot pigweed [8]": {"test_system": "redroot pigweed", "assay": "Upland post-emergence treatment test, redroot pigweed", "type": "in vivo, redroot pigweed (Amaranthus retroflexus)", "details": "post-emergence spray at 3-4 leaf stage, 80 g/ha, 30th day after treatment, greenhouse", "text": "as §1, §2, §3, §5"}, "common ragweed [9]": {"test_system": "common ragweed", "assay": "Upland post-emergence treatment test, common ragweed", "type": "in vivo, common ragweed (Ambrosia artemisilfolia)", "details": "post-emergence spray at 3-4 leaf stage, 80 g/ha, 30th day after treatment, greenhouse", "text": "as §1, §2, §3, §5"}, "green foxtail [10]": {"test_system": "green foxtail", "assay": "Upland post-emergence treatment test, green foxtail", "type": "in vivo, green foxtail (Setaria viridis)", "details": "post-emergence spray at 3-4 leaf stage, 80 g/ha, 30th day after treatment, greenhouse", "text": "as §1, §2, §3, §5"}, "large crabgrass [11]": {"test_system": "large crabgrass", "assay": "Upland post-emergence treatment test, large crabgrass", "type": "in vivo", "details": "post-emergence spray at 3-4 leaf stage, 80 g/ha, 30th day after treatment, greenhouse", "text": "as §1, §2, §3, §5"}, "corn [12]": {"test_system": "corn", "assay": "Upland post-emergence treatment test, phytotoxicity to corn", "type": "in vivo", "details": "post-emergence spray at 3-4 leaf stage, 80 g/ha, 30th day after treatment, greenhouse", "text": "as §1, §2, §3, §5"}}}
{"smiles": "Cc1c(C(=O)c2cnn(C)c2O)ccc2c1C(C)(C)CS2(=O)=O", "note": "[Compound 1, 5-(1′-methyl-5′-hydroxypyrazol-4′-yl)carbonyl-3,3,4-trimethyl-2,3-dihydrobenzothiophene-1,1-dioxide]", "values": [{"measurement": "Herbicidal Efficacy AA = Velvetleaf", "setting": "velvetleaf [1]", "value": "5 (0)"}, {"measurement": "Herbicidal Efficacy BB = Common lambsquaters", "setting": "common lambsquaters", "value": "5 (0)"}, {"measurement": "Herbicidal Efficacy CC = Rough Pigweed", "setting": "redroot pigweed [2]", "value": "5 (0)"}, {"measurement": "Herbicidal Efficacy DD = Common ragweed", "setting": "common ragweed [3]", "value": "5 (0)"}, {"measurement": "Herbicidal Efficacy EE = Green foxtail", "setting": "green foxtail [4]", "value": "5 (0)"}, {"measurement": "Herbicidal Efficacy FF = Large crabgrass", "setting": "large crabgrass [5]", "value": "5 (0)"}, {"measurement": "Phytotoxicity Corn", "setting": "corn [6]", "value": "− (100)"}, {"measurement": "Herbicidal Efficacy AA = Velvetleaf", "setting": "velvetleaf [7]", "value": "5 (0)"}, {"measurement": "Herbicidal Efficacy CC = Redroot Pigweed", "setting": "redroot pigweed [8]", "value": "5 (0)"}, {"measurement": "Herbicidal Efficacy DD = Common ragweed", "setting": "common ragweed [9]", "value": "5 (0)"}, {"measurement": "Herbicidal Efficacy EE = Green foxtail", "setting": "green foxtail [10]", "value": "5 (0)"}, {"measurement": "Herbicidal Efficacy FF = Large crabgrass", "setting": "large crabgrass [11]", "value": "5 (0)"}, {"measurement": "Phytotoxicity Corn", "setting": "corn [12]", "value": "− (100)"}]}
{"smiles": "Cc1c(C(=O)c2cnn(C)c2OS(C)(=O)=O)ccc2c1C(C)(C)CS2(=O)=O", "note": "[Compound 2]", "values": [{"measurement": "Herbicidal Efficacy AA = Velvetleaf", "setting": "velvetleaf [1]", "value": "5 (0)"}, {"measurement": "Herbicidal Efficacy BB = Common lambsquaters", "setting": "common lambsquaters", "value": "5 (0)"}, {"measurement": "Herbicidal Efficacy CC = Rough Pigweed", "setting": "redroot pigweed [2]", "value": "5 (0)"}, {"measurement": "Herbicidal Efficacy DD = Common ragweed", "setting": "common ragweed [3]", "value": "5 (0)"}, {"measurement": "Herbicidal Efficacy EE = Green foxtail", "setting": "green foxtail [4]", "value": "5 (0)"}, {"measurement": "Herbicidal Efficacy FF = Large crabgrass", "setting": "large crabgrass [5]", "value": "5 (0)"}, {"measurement": "Phytotoxicity Corn", "setting": "corn [6]", "value": "− (100)"}, {"measurement": "Herbicidal Efficacy AA = Velvetleaf", "setting": "velvetleaf [7]", "value": "5 (0)"}, {"measurement": "Herbicidal Efficacy CC = Redroot Pigweed", "setting": "redroot pigweed [8]", "value": "5 (0)"}, {"measurement": "Herbicidal Efficacy DD = Common ragweed", "setting": "common ragweed [9]", "value": "5 (0)"}, {"measurement": "Herbicidal Efficacy EE = Green foxtail", "setting": "green foxtail [10]", "value": "5 (0)"}, {"measurement": "Herbicidal Efficacy FF = Large crabgrass", "setting": "large crabgrass [11]", "value": "5 (0)"}, {"measurement": "Phytotoxicity Corn", "setting": "corn [12]", "value": "− (100)"}]}
{"smiles": "CCCS(=O)(=O)Oc1c(C(=O)c2ccc3c(c2C)C(C)(C)CS3(=O)=O)cnn1C", "note": "[Compound 4, 5-(1′-methyl-5′-n-propanesulfonyloxypyrazol-4′-yl)carbonyl-3,3,4-trimethyl-2,3-dihydrobenzothiophene-1,1-dioxide]", "values": [{"measurement": "Herbicidal Efficacy AA = Velvetleaf", "setting": "velvetleaf [1]", "value": "5 (0)"}, {"measurement": "Herbicidal Efficacy BB = Common lambsquaters", "setting": "common lambsquaters", "value": "5 (0)"}, {"measurement": "Herbicidal Efficacy CC = Rough Pigweed", "setting": "redroot pigweed [2]", "value": "5 (0)"}, {"measurement": "Herbicidal Efficacy DD = Common ragweed", "setting": "common ragweed [3]", "value": "5 (0)"}, {"measurement": "Herbicidal Efficacy EE = Green foxtail", "setting": "green foxtail [4]", "value": "5 (0)"}, {"measurement": "Herbicidal Efficacy FF = Large crabgrass", "setting": "large crabgrass [5]", "value": "5 (0)"}, {"measurement": "Phytotoxicity Corn", "setting": "corn [6]", "value": "− (100)"}, {"measurement": "Herbicidal Efficacy AA = Velvetleaf", "setting": "velvetleaf [7]", "value": "5 (0)"}, {"measurement": "Herbicidal Efficacy CC = Redroot Pigweed", "setting": "redroot pigweed [8]", "value": "5 (0)"}, {"measurement": "Herbicidal Efficacy DD = Common ragweed", "setting": "common ragweed [9]", "value": "5 (0)"}, {"measurement": "Herbicidal Efficacy EE = Green foxtail", "setting": "green foxtail [10]", "value": "5 (0)"}, {"measurement": "Herbicidal Efficacy FF = Large crabgrass", "setting": "large crabgrass [11]", "value": "5 (0)"}, {"measurement": "Phytotoxicity Corn", "setting": "corn [12]", "value": "− (100)"}]}
{"smiles": "Cc1ccc(S(=O)(=O)Oc2c(C(=O)c3ccc4c(c3C)C(C)(C)CS4(=O)=O)cnn2C)cc1", "note": "[Compound 18]", "values": [{"measurement": "Herbicidal Efficacy AA = Velvetleaf", "setting": "velvetleaf [1]", "value": "5 (0)"}, {"measurement": "Herbicidal Efficacy BB = Common lambsquaters", "setting": "common lambsquaters", "value": "5 (0)"}, {"measurement": "Herbicidal Efficacy CC = Rough Pigweed", "setting": "redroot pigweed [2]", "value": "5 (0)"}, {"measurement": "Herbicidal Efficacy DD = Common ragweed", "setting": "common ragweed [3]", "value": "4 (1-20)"}, {"measurement": "Herbicidal Efficacy EE = Green foxtail", "setting": "green foxtail [4]", "value": "5 (0)"}, {"measurement": "Herbicidal Efficacy FF = Large crabgrass", "setting": "large crabgrass [5]", "value": "5 (0)"}, {"measurement": "Phytotoxicity Corn", "setting": "corn [6]", "value": "− (100)"}, {"measurement": "Herbicidal Efficacy AA = Velvetleaf", "setting": "velvetleaf [7]", "value": "5 (0)"}, {"measurement": "Herbicidal Efficacy CC = Redroot Pigweed", "setting": "redroot pigweed [8]", "value": "5 (0)"}, {"measurement": "Herbicidal Efficacy DD = Common ragweed", "setting": "common ragweed [9]", "value": "5 (0)"}, {"measurement": "Herbicidal Efficacy EE = Green foxtail", "setting": "green foxtail [10]", "value": "5 (0)"}, {"measurement": "Herbicidal Efficacy FF = Large crabgrass", "setting": "large crabgrass [11]", "value": "5 (0)"}, {"measurement": "Phytotoxicity Corn", "setting": "corn [12]", "value": "− (100)"}]}
{"smiles": "Cc1c(C(=O)c2cnn(C)c2OC(=O)C2CCCCC2)ccc2c1C(C)(C)CS2(=O)=O", "note": "[Compound 37]", "values": [{"measurement": "Herbicidal Efficacy AA = Velvetleaf", "setting": "velvetleaf [1]", "value": "5 (0)"}, {"measurement": "Herbicidal Efficacy BB = Common lambsquaters", "setting": "common lambsquaters", "value": "5 (0)"}, {"measurement": "Herbicidal Efficacy CC = Rough Pigweed", "setting": "redroot pigweed [2]", "value": "5 (0)"}, {"measurement": "Herbicidal Efficacy DD = Common ragweed", "setting": "common ragweed [3]", "value": "5 (0)"}, {"measurement": "Herbicidal Efficacy EE = Green foxtail", "setting": "green foxtail [4]", "value": "5 (0)"}, {"measurement": "Herbicidal Efficacy FF = Large crabgrass", "setting": "large crabgrass [5]", "value": "5 (0)"}, {"measurement": "Phytotoxicity Corn", "setting": "corn [6]", "value": "− (100)"}, {"measurement": "Herbicidal Efficacy AA = Velvetleaf", "setting": "velvetleaf [7]", "value": "5 (0)"}, {"measurement": "Herbicidal Efficacy CC = Redroot Pigweed", "setting": "redroot pigweed [8]", "value": "5 (0)"}, {"measurement": "Herbicidal Efficacy DD = Common ragweed", "setting": "common ragweed [9]", "value": "5 (0)"}, {"measurement": "Herbicidal Efficacy EE = Green foxtail", "setting": "green foxtail [10]", "value": "5 (0)"}, {"measurement": "Herbicidal Efficacy FF = Large crabgrass", "setting": "large crabgrass [11]", "value": "5 (0)"}, {"measurement": "Phytotoxicity Corn", "setting": "corn [12]", "value": "− (100)"}]}
